Results taken from patent EP0663826B1, “AMINO ACIDS CONTAINING PARENTERAL FORMULATIONS FOR THE TREATMENT OF HYPOTENSION AND RELATED PATHOLOGIES” (BOARD OF REGENTS THE UNIVERSITY OF TEXAS SYSTEM, priority 1991, dated 1993).

Key:
[1] = test system: endotoxin-induced shock in dogs; assay: Endotoxin-induced hypotension in dogs (with nitroglycerin and control dogs); type: in vivo; conditions: Study 2: Nitroglycerin-treated dogs (n=3)
Procedure: Animals: Studies were carried out on 12 conditioned mongrel dogs (9 males and 3 females) weighing 22-32 kg (avg=25.3 kg). Animal care was in accordance with the recommendations of the American Association for Accreditation of Laboratory Animal Care, and met all standards prescribed by the Guide for the Care and Use of Laboratory Animals (Guide for the Care and Use of Laboratory Animals (1978) Dept. of Health, Education and Welfare, Washington, D.C. (Publ. No. 78-23). Animal protocols were approved by The University of Texas Animal Welfare committee. The dogs were fasted overnight prior to the day of experimentation. They were anesthetized with sodium pentobarbital (25 mg/kg i.v.). Dogs were then endotracheally intubated and ventilated with a piston-driven respirator (Harvard instruments) using room air at a tidal volume of 15 ml/kg and at a rate of 12 to 14 breaths per minute, adjusted to achieve a normal arterial pH and pCO2 (Instrumentation Laboratories lL1302 pH/Blood Gas Analyzer). Catheters were placed percutaneously into the femoral and pulmonary arteries; In the latter, a flow-directed thermal-dilation catheter was used (Abbott Critical Care Systems).
Physiologic measurements: Mean SAP and heart rate were continuously monitored (Parametron 7048 Monitoring System, Roche) and stored on a magnetic disk using an analog-to-digital converter (Scientific Solutions, Inc.). Cardiac output (CO) was determined as the mean of six measurements by thermal-dilution. Systemic vascular resistance was calculated as (SAP X80)/CO and expressed as dynes-sec/cm^5 (kg/s·cm^4).
Protocol: After the blood pressure and heart rate stabilized, endotoxin (40 µg/kg, in 10 ml of phosphate-buffered saline (PBS), pH 7.4) was infused i.v. over 2 minutes. This dose of endotoxin typically induces severe and often lethal cardiovascular collapse in the dog. Blood pressure was monitored, and when either SAP fell below 60 mm Hg or a stable nadir in systemic arterial pressure (SAP) was maintained for 10 minutes, L-NMA was administered (20 mg/kg in 5 ml of PBS i.v. over 1 min.). In most experiments, L-arginine (400 mg/kg in 20 ml PBS) was administered ten minutes later by i.v. infusion over 2 minutes. In control experiments, dogs without prior exposure to endotoxin received L-NMA alone. To simulate the hypotension observed in dogs receiving endotoxin, one group of dogs received a continuous i.v. infusion of nitroglycerin (2 mg/ml) at a rate adjusted to maintain the SAP at 60-70 mm Hg. Nitroglycerin-treated dogs then received L-NMA (20 mg/kg) and 20 minutes later L-arginine was administered ([…]).
Statistics: Statistical significance was evaluated using Student's test and either a one-tailed or two-tailed analysis as appropriate for comparisons.

pithed rats = assay: Blood pressure response to phenylephrine in pithed rats without/with arginase; type: in vivo; conditions: for Blood Pressure Increase With Arginase Ave. ± S.D.: after arginase; for difference in pressor response between control and endotoxic animals: phenylephrine 6 µg/Kg
Procedure: Animals were pithed as described in Example 1. Blood pressure measurements were obtained also as described in Example 1. Arginase was also prepared according to the method described in Example 1.
Both left and right jugular veins were cannulated for drug administration; and left jugular was used for bolus administration of phenylephrine and the right jugular vein was used for continuous infusion of arginase. All animals from both groups (Control and Endotoxin) received phenylephrine in sequential doses of 0.3, 1.0, 2.0, or 6.0 ug/Kg.
Endotoxin (15 mg/kg body weight) was given by intravenous injection 6 hrs before the experiment began; arginase (300 I.U./Min. for 20 min.) was given intravenously to each rat after the "Without Arginase" measurements were made.
For the second, third and fourth rats, the blood pressure increments were 14, 32 and 9 before arginase, respectively, and 9, 20 and 10 after arginase, respectively.

[2] = Study #1: Control Animals, phenylephrine 0.3 µg/Kg
[3] = Study #1: Control Animals, phenylephrine 1.0 µg/Kg
[4] = Study #1: Control Animals, phenylephrine 2.0 µg/Kg
[5] = Study #1: Control Animals, phenylephrine 6.0 µg/Kg
[6] = Study #2: Endotoxic Animals, phenylephrine 0.3 µg/Kg
[7] = Study #2: Endotoxic Animals, phenylephrine 1.0 µg/Kg
[8] = Study #2: Endotoxic Animals, phenylephrine 2.0 µg/Kg
[9] = Study #2: Endotoxic Animals, phenylephrine 6.0 µg/Kg

O=[N+]([O-])OCC(CO[N+](=O)[O-])O[N+](=O)[O-] [Nitroglycerin]
Cardiac Output ([1]; means ± S.E., baseline 3.14 ± 0.21): 2.72 ± 0.27 L/min
Heart Rate ([1]; means ± S.E., baseline 143.7 ± 12.1): 137.3 ± 5.0 beats/min
Systemic Vascular Resistance ([1]; means ± S.E., baseline 3294 ± 74): 1924 ± 132 dynes-sec/cm^5
Systemic Arterial Pressure ([1]; means ± S.E., continuous nitroglycerin (2 mg/ml) titrated to SAP 65 mm Hg, then L-NMA 20 mg/kg, then L-arginine, baseline 129.3 ± 10.2): 64.7 ± 2.7 mmHg
Systemic Vascular Resistance ([1]; value in brackets): 1.924 ± 0.132 Kg/s·cm^4

CNC[C@H](O)c1cccc(O)c1 [Phenylephrine, phenylephrine]
Blood Pressure Increase Without Arginase Ave. ± S.D. (pithed rats; [2]): 17.8 ± 5.0 mm Hg
Blood Pressure Increase With Arginase Ave. ± S.D. (pithed rats; [2]): 13.3 ± 2.5 mm Hg
Blood Pressure Increase Without Arginase Ave. ± S.D. (pithed rats; [3]): 31.3 ± 4.0 mm Hg
Blood Pressure Increase With Arginase Ave. ± S.D. (pithed rats; [3]): 22.5 ± 6.1 mm Hg
Blood Pressure Increase Without Arginase Ave. ± S.D. (pithed rats; [4]): 51.0 ± 6.6 mm Hg
Blood Pressure Increase With Arginase Ave. ± S.D. (pithed rats; [4]): 38.8 ± 9.1 mm Hg
Blood Pressure Increase Without Arginase Ave. ± S.D. (pithed rats; [5]): 93.0 ± 10.3 mm Hg
Blood Pressure Increase With Arginase Ave. ± S.D. (pithed rats; [5]): 79.8 ± 13.4 mm Hg
Blood Pressure Increase Without Arginase Ave. ± S.D. (pithed rats; [6]): 2.2 ± 0.7 mm Hg
Blood Pressure Increase With Arginase Ave. ± S.D. (pithed rats; [6]): 2.0 ± 0.6 mm Hg
Blood Pressure Increase Without Arginase Ave. ± S.D. (pithed rats; [7]): 7.0 ± 1.1 mm Hg
Blood Pressure Increase With Arginase Ave. ± S.D. (pithed rats; [7]): 9.0 ± 1.8 mm Hg
Blood Pressure Increase Without Arginase Ave. ± S.D. (pithed rats; [8]): 13.6 ± 2.6 mm Hg
Blood Pressure Increase With Arginase Ave. ± S.D. (pithed rats; [8]): 23.3 ± 5.3 mm Hg
Blood Pressure Increase Without Arginase Ave. ± S.D. (pithed rats; [9]): 33.7 ± 9.6 mm Hg
Blood Pressure Increase With Arginase Ave. ± S.D. (pithed rats; [9]): 48.5 ± 7.6 mm Hg
difference in pressor response between control and endotoxic animals (pithed rats; animals given arginase): 31.3 mm Hg
difference in pressor response between control and endotoxic animals (pithed rats; animals not given arginase): 59.3 mm Hg
